This is an account of results in patent US20190256827A1, “EPIGENOME EDITING SYSTEMS AND METHODS” (STC.UNM, priority 2017, published 2019).

Holding throughout (assay type): cell-based, human
The subject of assay [1] is IL1RN mRNA in HEK293T cells. Description: qPCR of IL1RN mRNA levels (dCas9-PYL-HA, FLAG-ABI-P300, sgRNAs). Here is the method: To study how IL1RN expression levels change, total RNAs from the cell lysates generated in the above experiment were purified and then subjected to qPCR analysis to quantify mRNA levels.
Human embryonic kidney cell HEK293T (American Type Culture Collection, Manassas, Va.) was cultured in Dulbecco's modified Eagle's medium (DMEM) (Gibco) with 10% FBS (Atlanta Biologicals), 1× GlutaMax (Gibco, Thermo Fisher Scientific, Inc., Waltham, Mass.), and 1× penicillin/streptomycin (Pen/Strep; Gibco, Thermo Fisher Scientific, Inc., Waltham, Mass.). Cells (100,000/ml) were plated in 24-well or 10-cm cell culture plate the day before transfection. For each well of 24-well plate transfection, 500 ng of dCas9-PYL-HA, 420 ng of FLAG-ABI-P300, and a total amount of 200-ng mix of gRNAs, with a 50-ng per each gRNA, were mixed with 50×(v/w) Opti-MEM (Gibco, Thermo Fisher Scientific, Inc., Waltham, Mass.), then incubate with the same volume of 3 μg PEI-Opti-MEM solution for 20 minutes at room temperature. Then, 100 μL of PEI-combined plasmids were added to every single well of 24-well plate and cultured for 24 hours before experiments were performed. For a 10 cm plate, 1 mL of PEI-combined plasmids were needed. After six hours transfection, cells were washed and incubated for another 1-72 hours before experiments were performed.
Total RNA was extracted using the EZNA Total RNA Kit I (Omega Bio-tek, Inc., Norcross, Ga.). qPCR reactions were performed on cDNA prepared from 1,000 ng of total cellular RNA using the High-Capacity cDNA Reverse Transcription Kit (Applied Biosystems Co., Thermo Fisher Scientific, Inc., Foster City, Calif.). TaqMan qPCR probes (Thermo Fisher Scientific, Inc., Waltham, Mass. IL1RN, Hs00893626; GRM2, Hs00968358; HBA, Hs00361191; MYOD1 Hs02330075; GAPDH, Hs99999905) and Fast Advanced Master Mix (Life Technologies Co., Co., Thermo Fisher Scientific, Inc., Carlsbad, Calif.) were used in multiplexed reactions and 384-well format in a 7900HT Fast Real-Time PCR System (Applied Biosystems Co., Thermo Fisher Scientific, Inc., Foster City, Calif.). All measurements were performed at least in triplicate. Data were analyzed using the SDS software, version 2.4 (Applied Biosystems Co., Thermo Fisher Scientific, Inc., Foster City, Calif.), by the ΔΔCt method: the Ct values of target gene were normalized to Ct values of GAPDH, the folds of target gene expression changes were normalized to experimental controls. Analyzed data are reported as the mean±s.e.m. for biological replicates. In ChIP assays, the Ct values of antibodies pulled down segments were normalized to the Ct values of 10% input.
(In general: Real-time PCR tracks product formation cycle by cycle.)

The subject of assay [2] is GAL4DBD-TIR1*/VP16AD-AID, inducible luciferase reporter in HEK293T cells. The experiment in a line: Inducible luciferase reporter assay, IAA-responsive system (orthogonality and reversibility). Here is the method: To ensure that IAA and ABA could be used to independently control two histone modification editing events, the orthogonality between these two systems was tested. HEK293T cells were co-transfected with either GAL4DBD-TIR1*/VP16AD-AID (responsive to IAA) or GAL4DBD-ABI/VP16AD-PYL (responsive to ABA), and an inducible luciferase reporter construct. This was followed by treating cells with either IAA or ABA (or DMSO as a control) for 24 hours. […] To test the reversibility of IAA-induced dimerization, in which it was critical to achieve precise temporal control, HEK293T cells were co-transfected with GAL4DBD-TIR1*, VP16AD-AID, and an inducible luciferase expression construct, and then treated cells with 50 μM IAA for 24 hours. Cells were then washed with fresh media without IAA to remove the inducer (or no washing as a control). They were then harvested for luciferase assays after washing.
(In general: Reporter assays use an easily measured gene product as a stand-in for the process of interest.)

The subject of assay [3] is TIR1*/AID dimerization, inducible EGFP reporter in HEK293T cells. The experiment in a line: IAA-inducible EGFP transcriptional activation assay (GAL4DBD-TIR1* or GAL4DBD-TIR1^WT with VP16AD-AID). The note with it: with or without IAA for 24 hours. The text has this: Based on sequence alignment analysis against Arabidopsis thaliana TIR1, a mutant form of Oryza sativa TIR1 (TIR1*) was engineered. TIR1* contained a double mutation, where glutamic acid residues at position 7 and position 10 were replaced with lysine residues (YFPEKVVKHIFSFL, SEQ ID NO:125) that inhibited the ability of TIR* to interact with the SCF complex. To test if TIR1* indeed no longer mediated IAA-induced degradation, but would still bind to AID in the presence of IAA, an IAA-inducible EGFP transcriptional activation assay was constructed. In this assay, EGFP would only be expressed when a functional transcriptional activator was reconstituted by IAA from the two split halves (a DNA binding domain, DBD, and an activation domain, AD, each linked to an IAA-dimerizable protein, TIR* and AID). DNA constructs were made that encoded fusion proteins of GAL4DBD-TIR1*, GAL4DBD-TIR1^WT (the mutant (TIR*) and the wild type TIR1 (TIR1^WT) fused to DBD from GAL4, respectively) and VP16AD-AID (AID fused to VP16 AD). If the AID fusion protein was degraded or the dimerization of TIR1 and AID was disrupted, no EGFP expression would occur. Either GAL4DBD-TIR1* or GAL4DBD-TIR1^WT was co-transfected with VP16AD-AID and an inducible EGFP reporter construct that contains 5×GALDBD binding sites into HEK293T cells with or without the addition of IAA for 24 hours.

`COc1cc(COC(=O)/C=C(C)\C=C\[C@@]2(O)C(C)=CC(=O)CC2(C)C)c([N+](=O)[O-])cc1OC` [ABA-DMNB]: in assay [1] (20 μM ABA-DMNB, not irradiated, vs DMSO), the “IL1RN mRNA expression with caged ABA, no UV light” value is “at levels of negative control (DMSO)”. In addition, the “IL1RN mRNA levels after uncaging by UV light” value in assay [1] (ABA-DMNB uncaged by exposure to UV light) is recorded as “mRNA levels increased”.

On to `O=C(O)Cc1c[nH]c2ccccc12` [IAA, indole-3-acetic acid], for which, in assay [2] (50 μM IAA for 24 hours, then washed with fresh media without IAA), the “reversibility of IAA-induced luciferase expression after washing” value was “readily reversible”. In addition, the “luciferase expression, IAA-responsive system” value in assay [2] (treated with IAA or ABA or DMSO for 24 hours) is reported as “Only the proper combination of inducer with corresponding binding proteins could induce luciferase expression”. Further, in assay [3], the “expression of EGFP” value was “Only the combination of the TIR1 mutant TIR* and the IAA addition induced the expression of EGFP”.
